Measured values from patent US20170015555A1, “LONG-TERM PRESERVATION AND NOVEL APPLICATION OF CHLOROUS ACID AQUEOUS SOLUTION FORMULATION” (priority 2013, published 2017).

Legend:
[1] = system: Staphylococcus aureus IF0 12732; experiment: Sterilizing effect on floor surface after wiping off imitation vomit, tatami mattress; assay type: cell-based; settings: 1000 ppm available chlorine
Excerpt: (§1) 1) Chlorous acid aqueous solution formulation (see Example 1: Table 11) Treatment sheet (material: 100% cotton): (about 27×40 cm) *Impregnated at a ratio of weight of treatment sheet (g): amount of liquid (ml)=1:3 2) Imitation vomit Miso solution: adjusted to pH of 2 with hydrochloric acid 3) Test Microbes that were Used E. coli: Escherichia coli IF03927 Staphylococcus aureus: Staphylococcus aureus IF0 12732 Thermoduric Microbes (Bacillus cereus): Bacillus cereus NBRC15305 Microbes of the genus Salmonella: Salmonella Enteritidis IF03313 Enterohemorrhagic Escherichia coli O157: Escherichia coli O157 Enterohemorrhagic Escherichia coli O111: Escherichia coli O111 Enterohemorrhagic Escherichia coli O26: Escherichia coli O26
(§2) (1) Imitation vomit was spread in an area about the size of an A4 sheet. (2) 5 dry sheets were laid thereon. (3) An agent solution was poured on the dry sheets to wipe off the imitation vomit. (4) A cotton swab was soaked with sterile saline. A portion where imitation vomit was spread was scrubbed with the cotton swab to collect microbes remaining on the floor. After suspending in saline, the solution was spread on a petri dish and cultured. The number of each of the microbes was measured. (5) Test operations 3 and 4 were repeated a total of 7 times (repeated until the imitation vomit could be removed completely).

[2] = system: E. coli: Escherichia coli IF03927; experiment: as above; assay type: cell-based; settings: 1000 ppm available chlorine
Excerpt: as §1, §2

[3] = system: Enterohemorrhagic Escherichia coli O26; experiment: as above; assay type: cell-based; settings: 1000 ppm available chlorine
Excerpt: as §1, §2

[4] = system: Enterohemorrhagic Escherichia coli O26; experiment: Sterilizing effect on floor surface after wiping off imitation vomit, carpet; assay type: cell-based; settings: 1000 ppm available chlorine
Excerpt: as §1, §2

[5] = Available chlorine concentration after impregnating diluent in treatment sheet; assay type: physicochemical
Procedure: (1) The available chlorine concentration of the “chlorous acid aqueous solution formulation (see Example 1: Table 11)” was measured, and the formulation was diluted to an available chlorine concentration of 1000 ppm [chlorous acid (HClO2) concentration: 489 ppm] or 500 ppm [chlorous acid (HClO2) concentration: 245 ppm]. (2) The available chlorine concentration of sodium hypochlorite was measured, and the sodium hypochlorite was diluted to an available chlorine concentration of 1000 ppm or 500 ppm. (3) The available chlorine concentration of the diluted solution was measured to find the available chlorine concentration prior to contact with a treatment sheet. (4) Treatment sheets were stacked, rolled up and inserted into a 200 ml-capacity PET bottle. A solution diluted so that the weight ratio of treatment sheet: agent solution would be 1:3 was poured into the 200 ml-capacity PET bottle containing the treatment sheets. (5) After contact with treatment sheets, treatment sheets were pulled out from the 200 ml-capacity PET bottle immediately after contact, after 1 hour, after 2 hours, after 3 hours, after 12 hours, after 24 hours, after 48 hours (after 2 days), after 72 hours (after 3 days), and after 168 hours (after 7 days). The sheets were used as specimens for examining available chlorine concentrations. (6) Solutions from the treatment sheets, the specimens pulled out from the 200 ml-capacity PET bottle, were wrung out into a 100 mL beaker. The available chlorine concentration of the solution was measured.
1. About 5 g of solution that was wrung out from the specimen was collected in a triangular flask with a stopper. 2. After adding 10 mL of 10 w/w % potassium iodide to the triangular flask with a stopper, 10 mL of 10% sulfuric acid was added. 3. After sealing, the mixture was left standing for 15 minutes in the dark. 4. 0.1 mol/L sodium thiosulfate solution was added until the color became light yellow. About 1 mL of 1 w/w % starch solution was added, and 0.1 mol/L sodium thiosulfate solution was added until the color of the solution became colorless. 5. Chlorine titer was found by the following equation.
R; Chlorine titer value a; Amount of 0.1 mol/L sodium thiosulfate solution added (g) f; Factor of 0.1 mol/L sodium thiosulfate solution w; Weight of measured specimen solution (g) 0.0035; Amount of chlorine corresponding to 1 g of 0.1 mol/L sodium thiosulfate 100; Percentage

pathogenic microbes = experiment: Preventing secondary contamination upon treating vomit, summary over all tested microbes; assay type: cell-based
Excerpt: 1) Chlorous acid aqueous solution formulation (see Example 1: Table 11) Treatment sheet (material: 100% cotton): (about 27×40 cm) *Impregnated at a ratio of weight of treatment sheet (g): amount of liquid (ml)=1:3 2) Imitation vomit (hereinafter, referred to as vomit) Miso solution: adjusted to pH 2 with hydrochloric acid 3) Test Microbes that were used E. coli: Escherichia coli IF03927 Staphylococcus aureus: Staphylococcus aureus IF0 12732 Thermoduric Microbes (Bacillus cereus): Bacillus cereus NBRC15305 Microbes of the genus Salmonella: Salmonella Enteritidis IF03313 Enterohemorrhagic Escherichia coli 0157: Escherichia coli 0157 Enterohemorrhagic Escherichia coli 0111: Escherichia coli 0111 Enterohemorrhagic Escherichia coli 026: Escherichia coli O26
Permeability of pathogenic microbes into a treatment sheet when treating vomit was examined to compare effects of preventing secondary contamination. (1) Imitation vomit is spread in an area about the size of an A4 sheet. (2) 30 agent solution-containing treatment sheets were laid thereon and left standing for 10 minutes. (3) Treatment sheets were removed one at a time from the top. After diluting with saline, the sample was spread in a petri dish and cultured.

OCl [Sodium Hypochlorite, sodium hypochlorite]
microbes remaining, wiped 1 Time ([1]; stored at 25° C. Day 0): <10 | microbes remaining, wiped 2 Times ([1]; stored at 25° C. Day 0): <10 | microbes remaining, wiped 3 Times ([1]; stored at 25° C. Day 0): <10 | microbes remaining, wiped 1 Time ([1]; stored at 25° C. Day 7): <10 | microbes remaining, wiped 2 Times ([1]; stored at 25° C. Day 7): <10 | microbes remaining, wiped 3 Times ([1]; stored at 25° C. Day 7): <10 | microbes remaining, wiped 1 Time ([2]; stored at 25° C. Day 0): <10 | microbes remaining, wiped 2 Times ([2]; stored at 25° C. Day 0): <10 | microbes remaining, wiped 3 Times ([2]; stored at 25° C. Day 0): <10 | microbes remaining, wiped 1 Time ([2]; stored at 25° C. Day 7): <10 | microbes remaining, wiped 2 Times ([2]; stored at 25° C. Day 7): <10 | microbes remaining, wiped 3 Times ([2]; stored at 25° C. Day 7): <10 | Number of Times Wiped 1 Time (remaining microbes) ([3]; stored at 25° C. Day 0): <10 | Number of Times Wiped 2 Times (remaining microbes) ([3]; stored at 25° C. Day 0): <10 | Number of Times Wiped 3 Times (remaining microbes) ([3]; stored at 25° C. Day 0): <10 | Number of Times Wiped 1 Time (remaining microbes) ([3]; stored at 25° C. Day 7): 8.8 × 10^3 | Number of Times Wiped 2 Times (remaining microbes) ([3]; stored at 25° C. Day 7): 4.9 × 10^3 | Number of Times Wiped 3 Times (remaining microbes) ([3]; stored at 25° C. Day 7): 3.0 × 10^3 | Microbes remaining on floor surface, wiped 1 Time ([4]; Day 0 at 25° C.): <10 | Microbes remaining on floor surface, wiped 2 Times ([4]; Day 0 at 25° C.): <10 | Microbes remaining on floor surface, wiped 3 Times ([4]; Day 0 at 25° C.): <10 | Microbes remaining on floor surface, wiped 1 Time ([4]; Day 7 at 25° C.): 8.8 × 10^3 | Microbes remaining on floor surface, wiped 2 Times ([4]; Day 7 at 25° C.): 4.9 × 10^3 | Microbes remaining on floor surface, wiped 3 Times ([4]; Day 7 at 25° C.): 3.0 × 10^3 | Available Chlorine Concentration ([5]; set concentration 500, 1 hour of contact): 175 ppm | Available Chlorine Concentration ([5]; set concentration 500, 2 hours of contact): 168 ppm | Available Chlorine Concentration ([5]; set concentration 500, 3 hours of contact): 144 ppm | Available Chlorine Concentration ([5]; set concentration 500, 12 hours of contact): 91 ppm | Available Chlorine Concentration ([5]; set concentration 500, 24 hours of contact): 68 ppm | Available Chlorine Concentration ([5]; set concentration 500, 48 hours of contact): 39 ppm | Available Chlorine Concentration ([5]; set concentration 500, 72 hours of contact): 39 ppm | Available Chlorine Concentration ([5]; set concentration 500, 168 hours of contact): 37 ppm | Available Chlorine Concentration ([5]; set concentration 500, 504 hours of contact): 32 ppm | Available Chlorine Concentration ([5]; set concentration 500, 720 hours of contact): 20 ppm | Available Chlorine Concentration ([5]; set concentration 500, before contact with treatment sheet): 549 ppm | Available Chlorine Concentration ([5]; set concentration 500, immediately after contact): 352 ppm | Available Chlorine Concentration ([5]; set concentration 1000, 1 hour of contact): 631 ppm | Available Chlorine Concentration ([5]; set concentration 1000, 2 hours of contact): 595 ppm | Available Chlorine Concentration ([5]; set concentration 1000, 3 hours of contact): 515 ppm | Available Chlorine Concentration ([5]; set concentration 1000, 12 hours of contact): 184 ppm | Available Chlorine Concentration ([5]; set concentration 1000, 24 hours of contact): 89 ppm | Available Chlorine Concentration ([5]; set concentration 1000, 48 hours of contact): 76 ppm | Available Chlorine Concentration ([5]; set concentration 1000, 72 hours of contact): 54 ppm | Available Chlorine Concentration ([5]; set concentration 1000, 168 hours of contact): 40 ppm | Available Chlorine Concentration ([5]; set concentration 1000, 504 hours of contact): 34 ppm | Available Chlorine Concentration ([5]; set concentration 1000, 720 hours of contact): 24 ppm | Available Chlorine Concentration ([5]; set concentration 1000, before contact with treatment sheet): 1045 ppm | Available Chlorine Concentration ([5]; set concentration 1000, immediately after contact): 690 ppm | sterilization/removal of pathogenic microbes in stacked treatment sheets (pathogenic microbes): able to sterilize pathogenic microbes from the first sheet
